Test results as given in EP1089755B1, “PHARMACEUTICAL PREPARATIONS FOR USE IN COMBATTING OR PREVENTING SURFACE INFECTIONS CAUSED BY MICROORGANISMS” (priority 1998, dated 2000).
Values after ≈ are worked out from the molar mass of the structure shown. Blank lines part the entries; values can stand above or below the compound they belong to.

Tests used:
Candida glabrata Y110 = experiment: MIC in the presence of saliva (SLM or SLM/Saliva, pH 7.5); format: cell-based; conditions: Nakaseomyces glabratus
C. albicans Y106 = experiment: MIC of antifungal agents (96-well turbidity assay, 24 hours); format: cell-based; conditions: Candida albicans, isolate Y106, SLM, read-out: minimum inhibitory concentrations (MIC)
C. glabrata Y110 [1] = experiment: as above; format: cell-based; conditions: for MIC: Nakaseomyces glabratus, Y110, 24 h, read-out: minimum inhibitory concentrations (MIC)
C. glabrata Y110 [2] = experiment: Synergy experiments (8 by 8 dilution matrix, Prichard and Shipman method); format: cell-based, Candida glabrata
C. albicans Y127 = experiment: MIC of antifungal agents (96-well turbidity assay, 24 hours); format: cell-based; conditions: isolate Y127, SLM; for MIC: Candida albicans, read-out: minimum inhibitory concentrations (MIC)
C. glabrata Y111 = experiment: as above; format: cell-based; conditions: Nakaseomyces glabratus, isolate Y111, SLM, read-out: minimum inhibitory concentrations (MIC)
C. glabrata Y110 [3] = experiment: Candida growth inhibition and MIC at several pH's in SLM or RPMI (96-well turbidity assay); format: cell-based, Candida glabrata; conditions: for MIC: Nakaseomyces glabratus, read-out: minimal inhibitory concentrations (MIC)
C. glabrata Y112 = experiment: MIC of antifungal agents (96-well turbidity assay, 24 hours); format: cell-based; conditions: Nakaseomyces glabratus, isolate Y112, SLM, read-out: minimum inhibitory concentrations (MIC)
C. albicans Y098 = experiment: as above; format: cell-based; conditions: Candida albicans, isolate Y098, SLM, read-out: minimum inhibitory concentrations (MIC)
C. albicans ATCC 10231 = experiment: as above; format: cell-based; conditions: Candida albicans, isolate 10231 (ATCC strain), SLM, read-out: minimum inhibitory concentrations (MIC)
C. tropicana Y140 = experiment: as above; format: cell-based; conditions: isolate Y140 (RPMI), RPMI-medium instead of SLM, read-out: minimum inhibitory concentrations (MIC)

Structure (SMILES): OC(Cn1cncn1)(Cn1cncn1)c1ccc(F)cc1F [Fluconazole, fluconazole]
MIC (Candida glabrata Y110; Y110, SLM, pH 7.5): 100 µg/mL
MIC (Candida glabrata Y110; Y110, SLM/Saliva (50%/50%), 24 hours): 40 µg/mL
MIC (Candida glabrata Y110; Y110, SLM, pH 7.5, 24 hours): 100 µg/mL
MIC (C. albicans Y106): 10 µg/mL
MIC (C. glabrata Y110 [1]; isolate Y110, SLM): 159 µg/mL
minimum inhibitory concentrations (MIC) (C. glabrata Y110 [1]; isolate Y110, SLM): 156 ± 50 µg/mL
UV (C. glabrata Y110 [2]; Fluconazole 0.0033 mg/ml alone): 1.150
UV (C. glabrata Y110 [2]; Fluconazole 0.0066 mg/ml alone): 1.167
UV (C. glabrata Y110 [2]; Fluconazole 0.01 mg/ml alone): 1.154
UV (C. glabrata Y110 [2]; Fluconazole 0.033 mg/ml alone): 1.127
UV (C. glabrata Y110 [2]; Fluconazole 0.1 mg/ml alone): 0.618
UV (C. glabrata Y110 [2]; Fluconazole 0.2 mg/ml alone): 0.003
UV (C. glabrata Y110 [2]; Fluconazole 0.33 mg/ml alone): 0.003
UV (C. glabrata Y110 [2]; Fluconazole 0.5 mg/ml alone): 0.004
inhibition at 3.3 µg/mL (C. glabrata Y110 [2]; Nakaseomyces glabratus, Y110, Fluconazole 0.0033 mg/ml alone): 0%
inhibition at 6.6 µg/mL (C. glabrata Y110 [2]; Nakaseomyces glabratus, Y110, Fluconazole 0.0066 mg/ml alone): 0%
inhibition at 10 µg/mL (C. glabrata Y110 [2]; Nakaseomyces glabratus, Y110, Fluconazole 0.01 mg/ml alone): 0%
inhibition at 33 µg/mL (C. glabrata Y110 [2]; Nakaseomyces glabratus, Y110, Fluconazole 0.033 mg/ml alone): 0%
inhibition at 100 µg/mL (C. glabrata Y110 [2]; Nakaseomyces glabratus, Y110, Fluconazole 0.1 mg/ml alone): 39.5%
inhibition at 200 µg/mL (C. glabrata Y110 [2]; Nakaseomyces glabratus, Y110, Fluconazole 0.2 mg/ml alone): 99.8%
inhibition at 330 µg/mL (C. glabrata Y110 [2]; Nakaseomyces glabratus, Y110, Fluconazole 0.33 mg/ml alone): 99.8%
inhibition at 500 µg/mL (C. glabrata Y110 [2]; Nakaseomyces glabratus, Y110, Fluconazole 0.5 mg/ml alone): 99.6%
MIC (C. albicans Y127): 10 µg/mL
MIC (C. glabrata Y111): 24 ± 7 µg/mL
MIC (C. glabrata Y110 [3]; Y110, RPMI, pH 5.0, 24 hours): 250 µg/mL (≈ 816 µM)
MIC (C. glabrata Y110 [3]; Y110, RPMI, pH 6.0, 24 hours): 110 µg/mL (≈ 359 µM)
MIC (C. glabrata Y110 [3]; Y110, RPMI, pH 7.0, 24 hours): 60 µg/mL (≈ 196 µM)
MIC (C. glabrata Y110 [3]; Y110, SLM, pH 5.6, 24 hours): 200 µg/mL (≈ 653 µM)
MIC (C. glabrata Y110 [3]; Y110, SLM, pH 6.5, 24 hours): 100 µg/mL (≈ 327 µM)
MIC (C. glabrata Y110 [3]; Y110, SLM, pH 7.5, 24 hours): 100 µg/mL (≈ 327 µM)
effect of an increase in pH of the medium on inhibition (C. glabrata Y110 [3]; SLM and RPMI): more efficient inhibition

MIC (C. glabrata Y112): 0.4 ± 0.05 µg/mL
MIC (C. albicans Y106): 0.082 ± 0.03 µg/mL
MIC (C. glabrata Y110 [1]; isolate Y110, SLM): 0.173 ± 0.06 µg/mL
MIC (C. albicans Y098): 0.08 ± 0.03 µg/mL
MIC (C. albicans Y127): 0.15 µg/mL
minimum inhibitory concentrations (MIC) (C. albicans Y127): 0.15 ± 0.07 µg/mL
MIC (C. albicans ATCC 10231): 0.06 ± 0.05 µg/mL
MIC (C. glabrata Y111): 0.14 ± 0.07 µg/mL
Structure (SMILES): C[C@@H]1[C@H](O)[C@@H](C)/C=C/C=C/C=C/C=C/C=C/C=C/C=C/[C@H](O[C@@H]2O[C@H](C)[C@@H](O)[C@H](N)[C@@H]2O)C[C@@H]2O[C@](O)(C[C@@H](O)C[C@@H](O)[C@H](O)CC[C@@H](O)C[C@@H](O)CC(=O)O[C@H]1C)C[C@H](O)[C@H]2C(=O)O [Amphoterricin B, Amphotericin B]

MIC (C. glabrata Y110 [1]; isolate Y110 (RPMI), RPMI-medium instead of SLM): 0.029 ± 0.005 µg/mL
MIC (C. tropicana Y140): 35 ± 7.07 µg/mL
Structure (SMILES): Nc1nc(=O)[nH]cc1F [5-Fluorocytosine, 5-fluorocytosine]
